Laboratory results from patent US11464772B2, “Methods of treating acute or chronic pain” (priority 2017, dated 2022).

Columns and labels:
[1] = system: rats post spinal nerve ligation; assay: Spinal nerve ligation (SNL), von Frey mechanical withdrawal (FIG. 3); assay type: in vivo, Sprague Dawley rats; conditions: oral, 100 mg/kg, 14 days post-SNL, tested 1, 2 and 4 hours
Protocol: Ligation of the L5 and L6 spinal nerves in rats leads to a robust pain state, characterized by tactile allodynia and mechanical hyperalgesia that can be assayed using the von Frey or Hargreaves assays (Kim, S. H. and Chung, J. M. Pain 50 (1992): 355-63). Sprague Dawley rats were housed in the animal vivarium 2 weeks prior to testing and housed on a 12 h light/dark cycle with food and water ad libitum. Under general anesthesia, the L5 and L6 spinal nerves on one side of the rat spine were tightly ligated using sterile surgical suture (Spinal Nerve Ligation, SNL). The incision site of each animal was then closed using standard surgical technique. Spared Nerve Injury: Animals were anesthetized by 2% isoflurane with 98% oxygen inhalation. […] The mechanical allodynia were measured at 60 minutes after administration every day (von Frey Cilia Apparatus, manufactured by Institute of Biology Bioengineering, Chinese Academy of Medical Science).
Baseline mechanical (von Frey) withdrawal responses were tested immediately before SNL surgery and 14 days after. […] Immediately after the 14-day post-surgical baseline responses were measured, Compound A (100 mg/kg), Gabapentin (100 mg/kg), or vehicle (control) were administered orally and voluntary withdrawal from von Frey mechanical stimuli were tested 1 hour, 2 hours and 4 hours later (FIG. 3). […]

[2] = system: rat models of neuropathic pain; conditions: rat models of neuropathic pain (Field et al. 1999); cited from earlier work
[3] = system: rats after intraplantar incision; assay: Rodent paw incision, Hargreaves thermal withdrawal assay (FIG. 1); assay type: in vivo, Sprague Dawley rats; conditions: intravenous, 30 mg/kg, post-surgery baseline, tested 0.5-4 hours
Protocol: The rodent paw incision model involves inducing a surgical incision to the plantar surface of the back paw of a mouse or rat, suturing the incision closed, then testing the area proximal to the wound for changes in sensory perception, such as allodynia or hypersensitivity, at some point in time after the incision (typically 24 hours later)(Brennan T J et al. Pain. 1996 March, 64(3):493-501). Thermal (Hargreaves) and mechanical (von Frey) sensory testing is performed before and 24 hours after surgical incision of the plantar surface of the left back paw of laboratory rats, at a plantar area adjacent to the incision. […]
Plantar incision of the hind paw of the rat produces a profound local inflammatory response characterized by pain hypersensitivity (allodynia) 24 hours after surgery in rats, in similar manner to the post-operative pain observed in humans (Brennan, T. J. et al. Pain. 1996 March; 64(3):493-501). […] Three days prior to testing the compound, thermal (Hargreaves) and mechanical (von Frey) sensitivity were measured using standard techniques described below. […] The thermal sensitivities of the animals were measured before surgery and 24 hours after surgery using the Hargreaves Thermal Withdrawal Assay (FIG. 1) (Kim, S. H. and Chung, J. M. Pain 50 (1992): 355-63). […]

Row | Structure (SMILES) | blocking of static and dynamic allodynia [2] | other results
1 | NCC1(CC(=O)O)CCCCC1 [gabapentin] | – | reversal of reduced mechanical withdrawal thresholds post spinal nerve ligation [1]: reversed
2 | CN1CC[C@]23c4c5ccc(O)c4O[C@H]2[C@@H](O)C=C[C@H]3[C@H]1C5 [morphine] | blocking only static allodynia, and not dynamic allodynia | –
3 | CC(C)Cc1ccc(C(C)C(=O)O)cc1 (stereo not shown) [ibuprofen] | – | reversal of reductions in thermal withdrawal thresholds after intraplantar incision [3]: not reversed
4 | CC(C)C[C@H](CN)CC(=O)O [pregablin] | blocking both types of allodynia | –
